Assay results reported in article PMC2745946 (International immunopharmacology, 2009).
Entries after “also recorded” stand apart in the source; their conditions may differ. Where two headings read alike, the source gives them in different places. One block for each molecule: values may come before it.

How the values were obtained:
[1] = system: NF-κB; assay: TNF-α induced NF-κB luciferase reporter assay in C2C12 myoblasts; assay type: cell-based; details: for NF-κB inhibition in myoblasts: 0.0001-10μM, TNF-α 10ng/ml; for Luciferase activity (reduced to): 1μg/ml, myoblasts
[2] = system: C2C12 myotubes; assay: MTT cell viability assay in C2C12 myotubes; details: for Myotubes % Cell Viability: MTT at respective IC50 concentration, relative to untreated controls
[3] = system: NF-κB; assay: TNF-α induced NF-κB luciferase reporter assay in C2C12 myotubes; assay type: cell-based; details: 0.0001-10μM, TNF-α 10ng/ml
[4] = system: NF-κB; details: read-out: IC50, LPS-induced NF-κB; macrophage cell line; cited from earlier work
[5] = MTT cell viability assay in C2C12 myotubes; details: mouse
[6] = system: NF-κB p65; assay: Immunostaining for NF-κB p65 nuclear translocation in C2C12 myoblasts; assay type: cell-based; details: drug 1μg/ml 24 hours, then TNF-α 24 hours
[7] = 10mg/kg; cited from earlier work
[8] = MTT cell viability assay in C2C12 myoblasts; details: mouse
[9] = system: NF-κB; details: read-out: IC50, NF-κB inhibition; macrophage reporter cell line; cited from earlier work
[10] = mdx mouse; 5mg/kg; cited from earlier work
[11] = mdx model; 1.2mg/kg; cited from earlier work
[12] = in vitro; details: mouse
[13] = system: NF-κB; details: primary human peripheral blood and mononuclear cells; cited from earlier work
[14] = system: C2C12 myoblasts; assay: MTT cell viability assay in C2C12 myoblasts; details: MTT at respective IC50 concentration; relative to untreated controls
[15] = Myoblast, read-out: NF-κB inhibition luciferase activity, Mean ± SD

Molecule: CC(C)(C)c1ccc(S(=O)(=O)/C=C/C#N)cc1 [Bay 11-7085]
NF-κB inhibition in myoblasts [1]: but not myoblasts | Myotubes % Cell Viability [2]: 87.2% | NF-κB inhibition in myotubes (words) ([3]; listed as BAY 11-7085): no inhibition | NF-κB inhibition in myotubes (words) ([3]; listed as Bay-11 7085): exhibited NF-κB inhibition

Molecule: CC1=C(O)C(=O)C=C2C1=CC=C1[C@@]2(C)CC[C@@]2(C)[C@@H]3C[C@](C)(C(=O)O)CC[C@]3(C)CC[C@]12C [Celastrol]
IC50 ([1]; Mus musculus, C2C12, read-out: IC50 in myocytes): ~0.001 µM | IC50 [4]: 0.27 µM | Toxicity to myotubes ([2]; 10μg/ml, MTT): 35% | viability at 48 h [5]: 72.1% | NF-κB nuclear translocation (qualitative) [6]: appeared to block nuclear translocation; also recorded: reduced the amount of nuclear translocation | Paw swelling [7]: reduce paw swelling a similar amount as Prednisolone | viability at 48 h [8]: 83.9%

NF-κB inhibition in myoblasts [1]: did not inhibit NF-κB | NF-κB inhibition in myocytes, myoblasts and myotubes together [1]: mostly ineffective | NF-κB inhibition in myotubes (words) [3]: did not inhibit NF-κB
Molecule: O=C(O[C@@H]1Cc2c(O)cc(O)cc2O[C@@H]1c1cc(O)c(O)c(O)c1)c1cc(O)c(O)c(O)c1 [EGCG, Epigallocatechin gallate]
IC50 [9]: 12 µM | Muscle histology, force contractions and creatine kinase leakage [10]: improve mdx mouse muscle histology, force contractions and creatine kinase leakage

NF-κB inhibition in myoblasts [1]: did not inhibit NF-κB | NF-κB inhibition in myocytes, myoblasts and myotubes together [1]: mostly ineffective | NF-κB inhibition in myotubes (words) [3]: did not inhibit NF-κB
Molecule: Cc1ccc(=O)n(-c2ccccc2)c1 [Pirfenidone]
Cardiac function [11]: improve cardiac function

Molecule: C[C@]12C=CC(=O)C=C1CC[C@@H]1[C@@H]2[C@@H](O)C[C@@]2(C)[C@H]1CC[C@]2(O)C(=O)CO [Prednisolone]
inhibition at 0.1 µM [1, 15]: 51.7 ± 13.6% | inhibition at 1 µM [1, 15]: 79.2 ± 9.22% | inhibition at 10 µM [1, 15]: 85.4 ± 4.59% | Luciferase activity (reduced to) ([1]; long regime: 24 h pretreatment, 24 h TNF-α): 38% | NF-κB inhibition in myocytes, myoblasts and myotubes together [1]: effective at inhibiting the NF-κB pathway | Luciferase activity (reduced to) ([1]; short regime: 30min pretreatment, 3hr TNF-α): 49.5% | NF-κB nuclear translocation (qualitative) [6]: appeared to block nuclear translocation; also recorded: reduced the amount of nuclear translocation | viability at 48 h [12]: 81.6% | viability at 48 h ([8]; C2C12 myoblasts containing an NF-κB luciferase reporter): 78.8%

Molecule: CC1=C(CO)C(=O)O[C@@H]([C@@H](C)[C@H]2CC[C@H]3[C@@H]4C[C@H]5O[C@]56[C@@H](O)C=CC(=O)[C@]6(C)[C@H]4CC[C@]23C)C1 [Withaferin]
NF-κB inhibition in myocytes, myoblasts and myotubes together [1]: effective at inhibiting NF-κB | Maximal effective dose [13]: 1.0 mg/mL | Myotubes % Cell Viability [2]: 72.7% | Myoblasts % Cell Viability [14]: 61.1%

NF-κB inhibition in myoblasts [1]: did not inhibit NF-κB | NF-κB inhibition in myocytes, myoblasts and myotubes together [1]: mostly ineffective | NF-κB inhibition in myotubes (words) [3]: did not inhibit NF-κB
Molecule: Thymosin β4: small actin-sequestering protein that reduces inflammation and promotes healing in multiple tissues
